Structures can show the parent of a compound that is named as a salt. Marks after values point to notes of the source that are not given here.
System: ovariectomized rats
Experiment: ovariectomized rat model of postmenopausal hyperlipidemia (serum cholesterol, uterine weight, uterine eosinophil peroxidase)
Type: in vivo
Excerpt: Experimental models of postmenopausal hyperlipidemia are known in the art. Germane to this invention is the ovariectomized rat model which is detailed in U.S. Pat. No. 5,464,845. Data presented in Table 1 show comparative results among ovariectomized rats, rats treated with 17-α-ethynyl estradiol (EE2), and rats treated with certain compounds of this invention. […] This uterine response to estrogen is well recognized in the art.
Not only did the compounds of the present invention reduce serum cholesterol compared to the ovariectomized animals, but the uterine weight was increased to lesser extent than those given EE2. Compared to estrogenic compounds known in the art, the benefit of serum cholesterol reduction while lessening the effect on uterine weight is unusual and desirable.
As expressed in the data below, estrogenicity also was assessed by evaluating the response of eosinophil infiltration into the uterus.
The data presented in Table 1 reflect the response per treatment group.

[1] = orally administered at 0.1 mg/kg/day, ovariectomized rats
[2] = ovariectomized rats, 0.1 mg/kg PO
[3] = ovariectomized rats, 0.01 mg/kg PO
[4] = ovariectomized rats, 1.0 mg/kg PO
[5] = ovariectomized rats, 10.0 mg/kg PO

SMILES: C#C[C@]1(O)CC[C@H]2[C@@H]3CCc4cc(O)ccc4[C@H]3CC[C@@]21C [EE2, 17-α-Ethynyl-estradiol, reference compound]
- serum cholesterol (in words) [1]: caused a decrease in serum cholesterol
- uterine weight versus ovariectomized animals (in words) [1]: substantially greater than the uterine weight of the ovariectomized animals
- Serum Cholest. % Dec. (decrease versus ovariectomized controls) [2]: 88.1* %
- Uterine Eosinophil (Vmax), eosinophil peroxidase [2]: 174.3*
- Uterine Weight % Inc (increase versus the ovariectomized controls) [2]: 138.8* %
- eosinophil infiltration into the uterus (in words) (stromal layer of ovariectomized rat uteri): substantial and expected increase in eosinophil infiltration

SMILES: COc1cccc(-c2ccc3cc(OC)ccc3c2Oc2ccc(OCCN3CCCCC3)cc2)c1.Cl [Example 1, 1-[4-[2-(1-piperidinyl)ethoxy]phenoxy]-2-(3-methoxyphenyl)-6-methoxynaphthalene hydrochloride]
- Serum Cholest. % Dec. (decrease versus ovariectomized controls) [3]: 12.1%
- Uterine Eosinophil (Vmax), eosinophil peroxidase [3]: 2.1
- Uterine Weight % Inc (increase versus the ovariectomized controls) [3]: 9.6%
- Serum Cholest. % Dec. (decrease versus ovariectomized controls) [2]: 55.6* %
- Uterine Eosinophil (Vmax), eosinophil peroxidase [2]: 4.8
- Uterine Weight % Inc (increase versus the ovariectomized controls) [2]: 21.9%
- Serum Cholest. % Dec. (decrease versus ovariectomized controls) [4]: 60.5* %
- Uterine Eosinophil (Vmax), eosinophil peroxidase [4]: 4.8
- Uterine Weight % Inc (increase versus the ovariectomized controls) [4]: 35.8* %

SMILES: COc1cccc(-c2ccc3ccccc3c2Oc2ccc(OCCN3CCCCC3)cc2)c1.Cl [Example 2, 1-[4-[2-(1-piperidinyl)ethoxy]phenoxy]-2-(3-methoxyphenyl)naphthalene hydrochloride]
- Serum Cholest. % Dec. (decrease versus ovariectomized controls) [2]: 59.6* %
- Uterine Eosinophil (Vmax), eosinophil peroxidase [2]: 4.5
- Uterine Weight % Inc (increase versus the ovariectomized controls) [2]: 42.7* %
- Serum Cholest. % Dec. (decrease versus ovariectomized controls) [4]: 66.2* %
- Uterine Eosinophil (Vmax), eosinophil peroxidase [4]: 7.8
- Uterine Weight % Inc (increase versus the ovariectomized controls) [4]: 43.8* %
- Serum Cholest. % Dec. (decrease versus ovariectomized controls) [5]: 59.0* %
- Uterine Eosinophil (Vmax), eosinophil peroxidase [5]: 4.5
- Uterine Weight % Inc (increase versus the ovariectomized controls) [5]: 37.2* %

SMILES: Cl.Oc1cccc(-c2ccc3cc(O)ccc3c2Oc2ccc(OCCN3CCCCC3)cc2)c1 [Example 3, 1-[4-[2-(1-piperidinyl)ethoxy]phenoxy]-2-(3-hydroxyphenyl)-6-hydroxynaphthalene hydrochloride]
- Serum Cholest. % Dec. (decrease versus ovariectomized controls) [2]: 26.3* %
- Uterine Eosinophil (Vmax), eosinophil peroxidase [2]: 4.8
- Uterine Weight % Inc (increase versus the ovariectomized controls) [2]: 10.4%
- Serum Cholest. % Dec. (decrease versus ovariectomized controls) [4]: 45.7* %
- Uterine Eosinophil (Vmax), eosinophil peroxidase [4]: 3.0
- Uterine Weight % Inc (increase versus the ovariectomized controls) [4]: 15.3%
- Serum Cholest. % Dec. (decrease versus ovariectomized controls) [5]: 22.9%
- Uterine Eosinophil (Vmax), eosinophil peroxidase [5]: 1.2
- Uterine Weight % Inc (increase versus the ovariectomized controls) [5]: 3.9%

SMILES: O=C(c1ccc(OCCN2CCCCC2)cc1)c1c(-c2ccc(O)cc2)sc2cc(O)ccc12 [Raloxifene, [2-(4-hydroxyphenyl)-6-hydroxybenzo[b]thien-3-yl] [4-[2-(1-piperdinyl)ethoxy]phenyl]methanone hydrochloride, reference compound]
- Serum Cholest. % Dec. (decrease versus ovariectomized controls) [2]: 49.3* %
- Uterine Eosinophil (Vmax), eosinophil peroxidase [2]: 5.4
- Uterine Weight % Inc (increase versus the ovariectomized controls) [2]: 23.5%

From patent publication US7105541B2, “Naphthyl compounds, intermediates, compositions, and methods of use” (Eli Lilly and Company, priority 1996, dated 2006)
